According to ChEMBL document CHEMBL2029320 (J Med Chem, 2012):
Activity calls are given as the source filed them. The rule behind the calls is not given here. Residues, ends and D or L forms follow the SMILES beside them.

Assays:
[1] = target: T1, Relaxin-3 receptor 1 (Homo sapiens, UniProt Q9NSD7); assay: Displacement of europium-labelled H3 relaxin-B chain/INSL-5 chain from RXFP3 expressed in CHO-K1 cells; assay type: cell-based
T1 sequence (Q9NSD7 whole entry): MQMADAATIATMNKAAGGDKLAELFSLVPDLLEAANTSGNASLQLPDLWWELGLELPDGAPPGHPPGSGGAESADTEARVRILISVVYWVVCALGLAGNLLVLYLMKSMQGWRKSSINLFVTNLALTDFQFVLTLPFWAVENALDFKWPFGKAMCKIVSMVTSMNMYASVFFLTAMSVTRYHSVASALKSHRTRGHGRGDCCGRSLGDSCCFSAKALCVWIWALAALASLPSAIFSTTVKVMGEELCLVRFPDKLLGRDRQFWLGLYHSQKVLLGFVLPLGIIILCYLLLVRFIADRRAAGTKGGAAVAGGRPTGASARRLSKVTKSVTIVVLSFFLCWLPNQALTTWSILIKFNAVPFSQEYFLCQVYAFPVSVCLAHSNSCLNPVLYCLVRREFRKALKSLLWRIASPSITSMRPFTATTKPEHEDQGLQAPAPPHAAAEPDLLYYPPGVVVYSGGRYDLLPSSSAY

[2] = target: T2, Relaxin receptor 1 (Homo sapiens) (UniProt Q9HBX9); assay: Activation of RXFP1 expressed in HEK-293T cells assessed as induction of cAMP accumulation after 6 hrs by beta galactosidase reporter gene assay; assay type: functional, cell-based
T2 sequence (whole entry): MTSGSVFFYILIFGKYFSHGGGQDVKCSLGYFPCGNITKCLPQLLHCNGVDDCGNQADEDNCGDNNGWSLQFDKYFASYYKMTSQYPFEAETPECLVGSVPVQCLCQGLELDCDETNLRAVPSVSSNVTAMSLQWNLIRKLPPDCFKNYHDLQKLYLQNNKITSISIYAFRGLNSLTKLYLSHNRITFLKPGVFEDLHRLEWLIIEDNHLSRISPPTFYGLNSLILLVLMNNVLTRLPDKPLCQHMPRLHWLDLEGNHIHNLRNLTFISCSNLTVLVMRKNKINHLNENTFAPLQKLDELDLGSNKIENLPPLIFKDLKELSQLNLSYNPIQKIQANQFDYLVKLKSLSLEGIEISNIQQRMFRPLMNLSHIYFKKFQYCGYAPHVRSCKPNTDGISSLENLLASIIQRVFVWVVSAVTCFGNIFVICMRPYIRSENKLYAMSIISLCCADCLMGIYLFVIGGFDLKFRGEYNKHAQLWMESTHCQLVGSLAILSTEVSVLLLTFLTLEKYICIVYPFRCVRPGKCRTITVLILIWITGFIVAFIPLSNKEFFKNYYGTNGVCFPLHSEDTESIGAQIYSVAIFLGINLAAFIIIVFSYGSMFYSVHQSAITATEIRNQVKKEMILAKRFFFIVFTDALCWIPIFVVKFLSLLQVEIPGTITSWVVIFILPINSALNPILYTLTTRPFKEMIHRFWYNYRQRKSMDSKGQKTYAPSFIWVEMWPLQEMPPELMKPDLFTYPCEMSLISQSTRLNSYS

[3] = target: Relaxin-3 receptor 2 (Homo sapiens, UniProt Q8TDU9); assay: Agonist activity at RXFP4 expressed in CHO-K1 cells assessed as inhibition of forskolin-induced cAMP accumulation after 6 hrs by beta galactosidase reporter gene assay; assay type: functional, cell-based
Sequence of Relaxin-3 receptor 2 (Q8TDU9 whole entry): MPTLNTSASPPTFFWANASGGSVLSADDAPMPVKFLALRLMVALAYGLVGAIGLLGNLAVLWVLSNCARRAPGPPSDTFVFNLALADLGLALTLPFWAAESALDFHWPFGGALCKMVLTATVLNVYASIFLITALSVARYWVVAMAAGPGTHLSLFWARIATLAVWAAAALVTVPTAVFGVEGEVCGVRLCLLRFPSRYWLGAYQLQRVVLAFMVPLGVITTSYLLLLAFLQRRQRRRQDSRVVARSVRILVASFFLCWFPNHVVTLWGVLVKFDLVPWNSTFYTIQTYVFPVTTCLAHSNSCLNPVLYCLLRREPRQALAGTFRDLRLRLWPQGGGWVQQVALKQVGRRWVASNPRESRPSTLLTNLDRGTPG

[4] = target: T3, Relaxin receptor 1 (Homo sapiens, UniProt Q9HBX9); assay: Displacement of europium-labelled H2 relaxin from RXFP1 expressed in HEK-293T cells; assay type: cell-based
T3 sequence (Q9HBX9 whole entry): T2 sequence (whole entry)

[5] = target: T1, Relaxin-3 receptor 1; assay: Agonist activity at RXFP3 expressed in CHO-K1 cells assessed as inhibition of forskolin-induced cAMP accumulation after 6 hrs by beta galactosidase reporter gene assay; assay type: functional, cell-based

In the case of H-RAAPYGVRLSGREFIRAVIFTSRGSRW-OH, the Ki [1] is reported as 2090 nM.
Work on H-RAAPYGVRLSGREFIRAVIFTSGGSRW-OH yielded a Ki [1] of 2950 nM.
H-RAAPYGVRLSGREFIRAVIFRSGGSRW-OH gave a Ki [1] of 741 nM.
In the case of `CC[C@H](C)[C@@H]1NC(=O)[C@H](Cc2ccccc2)NC(=O)[C@H](CCC(=O)O)NC(=O)[C@H](CCCNC(=N)N)NC(=O)CNC(=O)[C@@H](NC(=O)[C@H](CC(C)C)NC(=O)[C@H](CCCNC(=N)N)NC(=O)[C@@H](NC(=O)CN)C(C)C)CSSC[C@H](N)C(=O)N[C@@H](CCCCN)C(=O)N[C@@H](Cc2c[nH]c3ccccc23)C(=O)NCC(=O)N[C@@H](C)C(=O)N[C@@H](CO)C(=O)N[C@@H](CCCCN)C(=O)N[C@@H](CO)C(=O)N[C@@H](CCC(=O)O)C(=O)N[C@@H]([C@@H](C)CC)C(=O)N[C@@H](CO)C(=O)N[C@@H](CO)C(=O)N[C@@H](CC(C)C)C(=O)N[C@H](C(=O)O)CSSC[C@@H](C(=O)NCC(=O)NCC(=O)N[C@@H](CO)C(=O)N[C@@H](CCCNC(=N)N)C(=O)N[C@@H](Cc2c[nH]c3ccccc23)C(=O)O)NC(=O)[C@H]([C@@H](C)O)NC(=O)[C@H](Cc2ccccc2)NC(=O)[C@H]([C@@H](C)CC)NC(=O)[C@H](C(C)C)NC(=O)[C@H](C)NC(=O)[C@H](CCCNC(=N)N)NC1=O`, the pIC50 [2] is reported as “inactive”, the IC50 [3] is reported as 14.1 nM and the Ki [4] is reported as greater than 10000 nM.
`CC[C@H](C)[C@H](NC(=O)[C@@H](NC(=O)[C@H](C)NC(=O)[C@H](CCCN=C(N)N)NC(=O)[C@H](CS)NC(=O)[C@H](Cc1ccccc1)NC(=O)[C@H](CCC(=O)O)NC(=O)[C@H](CCCN=C(N)N)NC(=O)CNC(=O)[C@H](CO)NC(=O)[C@H](CC(C)C)NC(=O)[C@H](CCCN=C(N)N)NC(=O)[C@@H](NC(=O)CNC(=O)[C@H](Cc1ccc(O)cc1)NC(=O)[C@@H]1CCCN1C(=O)[C@H](C)NC(=O)[C@H](C)NC(=O)[C@@H](N)CCCN=C(N)N)C(C)C)C(C)C)C(=O)N[C@@H](Cc1ccccc1)C(=O)N[C@H](C(=O)N[C@@H](CS)C(=O)NCC(=O)NCC(=O)N[C@@H](CO)C(=O)N[C@@H](CCCN=C(N)N)C(=O)N[C@@H](Cc1c[nH]c2ccccc12)C(=O)O)[C@@H](C)O` (H-RAAPYGVRLSGREFCRAVIFTCGGSRW-OH) showed a Ki [1] greater than 10000 nM.
`CC[C@H](C)[C@@H]1NC(=O)[C@H](Cc2ccccc2)NC(=O)[C@H](CCC(=O)O)NC(=O)[C@H](CCCN=C(N)N)NC(=O)CNC(=O)[C@@H](N)CSSC[C@H](N)C(=O)N[C@@H](CCCCN)C(=O)N[C@@H](Cc2c[nH]c3ccccc23)C(=O)NCC(=O)N[C@@H](C)C(=O)N[C@@H](CO)C(=O)N[C@@H](CCCCN)C(=O)N[C@@H](CO)C(=O)N[C@@H](CCC(=O)O)C(=O)N[C@@H]([C@@H](C)CC)C(=O)N[C@@H](CO)C(=O)N[C@@H](CO)C(=O)N[C@@H](CC(C)C)C(=O)N[C@H](C(=O)O)CSSC[C@@H](C(=O)NCC(=O)NCC(=O)N[C@@H](CO)C(=O)N[C@@H](CCCN=C(N)N)C(=O)N[C@@H](Cc2c[nH]c3ccccc23)C(=O)O)NC(=O)[C@H]([C@@H](C)O)NC(=O)[C@H](Cc2ccccc2)NC(=O)[C@H]([C@@H](C)CC)NC(=O)[C@H](C(C)C)NC(=O)[C@H](C)NC(=O)[C@H](CCCN=C(N)N)NC1=O` showed an IC50 [3] of 3.47 nM and a Ki [4] greater than 10000 nM.
With `CC[C@H](C)[C@H](NC(=O)[C@H](CS)NC(=O)[C@H](CCC(=O)O)NC(=O)[C@H](CCCN=C(N)N)NC(=O)CNC(=O)[C@H](CS)NC(=O)[C@H](CC(C)C)NC(=O)[C@H](CCCN=C(N)N)NC(=O)[C@@H](NC(=O)CNC(=O)[C@H](Cc1ccc(O)cc1)NC(=O)[C@@H]1CCCN1C(=O)[C@H](C)NC(=O)[C@H](C)NC(=O)[C@@H](N)CCCN=C(N)N)C(C)C)C(=O)N[C@@H](CCCN=C(N)N)C(=O)N[C@@H](C)C(=O)N[C@@H](CS)C(=O)N[C@H](C(=O)N[C@@H](Cc1ccccc1)C(=O)N[C@H](C(=O)N[C@@H](CS)C(=O)NCC(=O)NCC(=O)N[C@@H](CO)C(=O)N[C@@H](CCCN=C(N)N)C(=O)N[C@@H](Cc1c[nH]c2ccccc12)C(=O)O)[C@@H](C)O)[C@@H](C)CC` (H-RAAPYGVRLCGRECIRACIFTCGGSRW-OH) the Ki [1] was greater than 10000 nM.
Compound `CC[C@H](C)[C@H](NC(=O)[C@H](Cc1ccccc1)NC(=O)[C@H](CCC(=O)O)NC(=O)[C@H](CCCNC(=N)N)NC(=O)CNC(=O)[C@H](CO)NC(=O)[C@H](CC(C)C)NC(=O)[C@H](CCCNC(=N)N)NC(=O)[C@@H](NC(=O)CNC(=O)[C@H](CS)NC(=O)[C@@H]1CCCN1C(=O)[C@H](C)NC(=O)[C@H](C)NC(=O)[C@@H](N)CCCNC(=N)N)C(C)C)C(=O)N[C@@H](CCCNC(=N)N)C(=O)N[C@@H](C)C(=O)N[C@H](C(=O)N[C@H](C(=O)N[C@@H](Cc1ccccc1)C(=O)N[C@@H](CS)C(=O)N[C@@H](CO)C(=O)NCC(=O)NCC(=O)N[C@@H](CO)C(=O)N[C@@H](CCCNC(=N)N)C(=O)N[C@@H](Cc1c[nH]c2ccccc12)C(=O)O)[C@@H](C)CC)C(C)C` (H-RAAPCGVRLSGREFIRAVIFCSGGSRW-OH) has a Ki [1] greater than 10000 nM.
With `CC[C@H](C)[C@@H]1NC(=O)[C@H](Cc2ccccc2)NC(=O)[C@H](CCC(=O)O)NC(=O)[C@H](CCCNC(=N)N)NC(=O)CNC(=O)[C@@H](NC(=O)[C@H](CC(C)C)NC(=O)[C@@H](N)CCCNC(=N)N)CSSC[C@H](N)C(=O)N[C@@H](CCCCN)C(=O)N[C@@H](Cc2c[nH]c3ccccc23)C(=O)NCC(=O)N[C@@H](C)C(=O)N[C@@H](CO)C(=O)N[C@@H](CCCCN)C(=O)N[C@@H](CO)C(=O)N[C@@H](CCC(=O)O)C(=O)N[C@@H]([C@@H](C)CC)C(=O)N[C@@H](CO)C(=O)N[C@@H](CO)C(=O)N[C@@H](CC(C)C)C(=O)N[C@H](C(=O)O)CSSC[C@@H](C(=O)NCC(=O)NCC(=O)N[C@@H](CO)C(=O)N[C@@H](CCCNC(=N)N)C(=O)N[C@@H](Cc2c[nH]c3ccccc23)C(=O)O)NC(=O)[C@H]([C@@H](C)O)NC(=O)[C@H](Cc2ccccc2)NC(=O)[C@H]([C@@H](C)CC)NC(=O)[C@H](C(C)C)NC(=O)[C@H](C)NC(=O)[C@H](CCCNC(=N)N)NC1=O` the pIC50 [2] was “inactive”.
H-RAAPYGVRLSGREFIRAVIFTSRGGSRW-OH was tested, and the Ki [1] was 2570 nM.
For `CC[C@H](C)[C@@H]1NC(=O)[C@H](Cc2ccccc2)NC(=O)[C@H](CCC(=O)O)NC(=O)[C@H](CCCNC(=N)N)NC(=O)CNC(=O)[C@@H](N)CSSC[C@H](N)C(=O)N[C@@H](CCCCN)C(=O)N[C@@H](Cc2c[nH]c3ccccc23)C(=O)NCC(=O)N[C@@H](C)C(=O)N[C@@H](CO)C(=O)N[C@@H](CCCCN)C(=O)N[C@@H](CO)C(=O)N[C@@H](CCC(=O)O)C(=O)N[C@@H]([C@@H](C)CC)C(=O)N[C@@H](CO)C(=O)N[C@@H](CO)C(=O)N[C@@H](CC(C)C)C(=O)N[C@H](C(=O)O)CSSC[C@@H](C(=O)NCC(=O)NCC(=O)N[C@@H](CO)C(=O)N[C@@H](CCCNC(=N)N)C(=O)N[C@@H](Cc2c[nH]c3ccccc23)C(=O)O)NC(=O)[C@H]([C@@H](C)O)NC(=O)[C@H](Cc2ccccc2)NC(=O)[C@H]([C@@H](C)CC)NC(=O)[C@H](C(C)C)NC(=O)[C@H](C)NC(=O)[C@H](CCCNC(=N)N)NC1=O`, the pIC50 [2] was “inactive”.
Compound H-RAAPYGVRLSGREFIRKVIFTSGGSRW-OH has a Ki [1] greater than 10000 nM.
In the case of `CC[C@H](C)[C@@H]1NC(=O)[C@H](Cc2ccccc2)NC(=O)[C@H](CCC(=O)O)NC(=O)[C@H](CCCN=C(N)N)NC(=O)CNC(=O)[C@@H](NC(=O)[C@H](CC(C)C)NC(=O)[C@@H](N)CCCN=C(N)N)CSSC[C@H](N)C(=O)N[C@@H](CCCCN)C(=O)N[C@@H](Cc2c[nH]c3ccccc23)C(=O)NCC(=O)N[C@@H](C)C(=O)N[C@@H](CO)C(=O)N[C@@H](CCCCN)C(=O)N[C@@H](CO)C(=O)N[C@@H](CCC(=O)O)C(=O)N[C@@H]([C@@H](C)CC)C(=O)N[C@@H](CO)C(=O)N[C@@H](CO)C(=O)N[C@@H](CC(C)C)C(=O)N[C@H](C(=O)O)CSSC[C@@H](C(=O)NCC(=O)NCC(=O)N[C@@H](CO)C(=O)N[C@@H](CCCN=C(N)N)C(=O)N[C@@H](Cc2c[nH]c3ccccc23)C(=O)O)NC(=O)[C@H]([C@@H](C)O)NC(=O)[C@H](Cc2ccccc2)NC(=O)[C@H]([C@@H](C)CC)NC(=O)[C@H](C(C)C)NC(=O)[C@H](C)NC(=O)[C@H](CCCN=C(N)N)NC1=O`, the IC50 [3] is reported as 7.94 nM, the IC50 [5] is reported as 5.13 nM and the Ki [1] is reported as 112 nM. The Ki [4] was greater than 10000 nM.
With H-RAAPYGVRLSGREFIRAVIFTRGGSRW-OH the Ki [1] was 3390 nM.
